Converted amounts (≈) assume the structure as drawn. The source made the active and inactive calls. No cut-off for these calls is given here. A value given as a limit tells only on which side of the number the result lay.

For data set [1], the target named is T1, Transient receptor potential cation channel subfamily M member 5 (Homo sapiens, UniProt Q9NZQ8).
T1 sequence (Q9NZQ8 whole entry): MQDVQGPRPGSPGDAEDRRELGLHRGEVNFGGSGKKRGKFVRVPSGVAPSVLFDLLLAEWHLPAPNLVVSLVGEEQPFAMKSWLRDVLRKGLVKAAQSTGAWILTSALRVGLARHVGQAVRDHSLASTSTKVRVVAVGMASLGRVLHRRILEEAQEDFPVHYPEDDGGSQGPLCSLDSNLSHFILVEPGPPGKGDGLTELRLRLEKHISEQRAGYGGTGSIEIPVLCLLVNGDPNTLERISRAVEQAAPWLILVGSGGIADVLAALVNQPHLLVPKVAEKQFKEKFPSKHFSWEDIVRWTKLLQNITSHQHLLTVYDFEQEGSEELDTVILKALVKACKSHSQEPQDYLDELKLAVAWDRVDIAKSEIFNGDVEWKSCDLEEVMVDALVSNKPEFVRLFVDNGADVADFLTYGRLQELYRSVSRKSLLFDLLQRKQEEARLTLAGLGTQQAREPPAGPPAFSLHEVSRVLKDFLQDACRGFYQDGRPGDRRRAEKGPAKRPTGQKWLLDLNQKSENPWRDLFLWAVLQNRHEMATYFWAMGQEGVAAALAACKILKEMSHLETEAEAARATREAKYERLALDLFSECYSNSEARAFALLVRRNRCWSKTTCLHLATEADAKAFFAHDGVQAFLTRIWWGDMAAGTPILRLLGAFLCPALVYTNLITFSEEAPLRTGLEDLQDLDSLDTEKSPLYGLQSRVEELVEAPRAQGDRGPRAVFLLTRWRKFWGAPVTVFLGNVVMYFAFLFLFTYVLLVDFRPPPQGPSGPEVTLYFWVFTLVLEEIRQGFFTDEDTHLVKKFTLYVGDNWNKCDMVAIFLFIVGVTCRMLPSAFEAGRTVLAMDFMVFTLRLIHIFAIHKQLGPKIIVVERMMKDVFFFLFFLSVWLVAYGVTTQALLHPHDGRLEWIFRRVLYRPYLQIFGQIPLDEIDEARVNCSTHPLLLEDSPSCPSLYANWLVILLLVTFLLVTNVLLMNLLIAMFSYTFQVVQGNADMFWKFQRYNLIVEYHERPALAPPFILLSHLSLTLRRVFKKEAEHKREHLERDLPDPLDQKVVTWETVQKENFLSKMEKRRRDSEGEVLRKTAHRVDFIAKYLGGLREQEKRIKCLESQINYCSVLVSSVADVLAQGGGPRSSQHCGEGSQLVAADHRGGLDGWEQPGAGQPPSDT
The data set is described as follows: Agonist activity at human TRPM5 expressed in CHO-K1 cells assessed as increase in relative fluorescence unit measured for 2 mins by FLIPR based membrane potential assay. Type of data set: cell-based.

Data set [2] deals with Transient receptor potential cation channel subfamily M member 4 (Homo sapiens, UniProt Q8TD43). The data set is described as follows: Agonist activity at human TRPM4 expressed in CHO-K1 cells assessed as increase in relative fluorescence unit by measuring membrane potential by FLIPR assay. Type of data set: cell-based.
The nature of data set [3]: Half-life in Sprague-Dawley rat. The format is ADME. The following applies: in vivo.
In data set [4] the target is T1, Transient receptor potential cation channel subfamily M member 5. Put plainly: Agonist activity at TRPM5 (unknown origin).
Data set [5] is described as follows: Solubility of the compound in JP2 solution. The format is physicochemical.
The nature of data set [6]: Solubility of the compound in JP1 solution. The format is physicochemical.
The nature of data set [7]: Intrinsic clearance in Sprague-Dawley rat. Type of data set: ADME.
A short description of data set [8]: Metabolic stability in human liver microsomes assessed as half life. The format is ADME, Microsome. The conditions noted are these: liver microsomes.
Data set [9] has as its target T1, Transient receptor potential cation channel subfamily M member 5. The data set is described as follows: Agonist activity at human TRPM5 expressed in HEK cells by whole cell electrophysiology method. Type of data set: cell-based.
A short description of data set [10]: Metabolic stability in human liver microsomes assessed as intrinsic clearance. The format is ADME, Microsome. The following applies: read-out: CLH.
The target of data set [11] is T2, Transient receptor potential cation channel subfamily M member 5 (Homo sapiens) (UniProt Q9NZQ8).
T2 sequence (whole entry): T1 sequence (Q9NZQ8 whole entry)
The data set is described as follows: Agonist activity at human TRPM5 expressed in human Caco-2 cells assessed as increase in acetylcholine release at 50 uM incubated for 18 hrs by mass spectrometric analysis. The format is cell-based. The conditions noted are these: filed as agonist.

Data set [12] deals with T1, Transient receptor potential cation channel subfamily M member 5. The data set is described as follows: Agonist activity at human TRPM5 in HEK293T cells by FLIPR based assay. Type of data set: cell-based.
For data set [13], the target named is T3, Transient receptor potential cation channel subfamily M member 5 (Mus musculus) (UniProt Q9JJH7).
T3 sequence (whole entry): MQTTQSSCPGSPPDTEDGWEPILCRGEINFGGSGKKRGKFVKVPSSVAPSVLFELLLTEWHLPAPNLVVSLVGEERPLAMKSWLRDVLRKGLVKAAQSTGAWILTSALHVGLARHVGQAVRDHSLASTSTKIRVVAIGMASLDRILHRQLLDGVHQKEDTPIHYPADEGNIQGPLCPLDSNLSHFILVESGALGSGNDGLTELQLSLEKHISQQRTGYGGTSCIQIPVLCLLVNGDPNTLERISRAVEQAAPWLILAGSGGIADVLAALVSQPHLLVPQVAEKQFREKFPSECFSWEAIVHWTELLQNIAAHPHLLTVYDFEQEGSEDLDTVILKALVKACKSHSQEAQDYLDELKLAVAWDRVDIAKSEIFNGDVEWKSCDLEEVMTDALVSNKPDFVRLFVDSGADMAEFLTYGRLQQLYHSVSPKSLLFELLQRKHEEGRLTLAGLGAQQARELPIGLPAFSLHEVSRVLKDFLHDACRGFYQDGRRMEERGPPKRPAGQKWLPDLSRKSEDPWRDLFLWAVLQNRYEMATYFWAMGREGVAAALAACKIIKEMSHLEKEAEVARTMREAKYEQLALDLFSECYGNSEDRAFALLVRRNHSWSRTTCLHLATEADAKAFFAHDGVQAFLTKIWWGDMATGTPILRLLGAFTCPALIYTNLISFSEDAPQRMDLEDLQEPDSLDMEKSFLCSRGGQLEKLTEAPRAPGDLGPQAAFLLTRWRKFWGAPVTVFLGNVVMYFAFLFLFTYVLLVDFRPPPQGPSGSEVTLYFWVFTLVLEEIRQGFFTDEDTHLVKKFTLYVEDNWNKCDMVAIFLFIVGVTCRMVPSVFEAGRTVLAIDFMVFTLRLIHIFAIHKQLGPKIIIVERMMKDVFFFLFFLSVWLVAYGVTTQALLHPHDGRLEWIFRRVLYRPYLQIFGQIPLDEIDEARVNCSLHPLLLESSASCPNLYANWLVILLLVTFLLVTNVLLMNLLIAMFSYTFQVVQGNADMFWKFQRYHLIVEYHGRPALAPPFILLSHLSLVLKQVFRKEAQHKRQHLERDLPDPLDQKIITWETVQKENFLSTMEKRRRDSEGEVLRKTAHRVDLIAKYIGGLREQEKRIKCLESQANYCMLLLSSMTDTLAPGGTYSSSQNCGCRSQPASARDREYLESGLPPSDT
The data set is described as follows: Binding affinity to mouse colon mucosal epithelium TRPM5 assessed as increase in short circuit current. Type of data set: tissue-based. The conditions noted are these: Colonic epithelium, filed as agonist.

The test system of data set [14] is Mus musculus. The data set is described as follows: Induction of gastrointestinal motility in CD-1 mouse assessed as increase in fecal weight at 10 to 100 mg/kg, po measured upto 6 hrs. Type of data set: functional, organism-based. The following applies: dose 10-100 mg/kg.
The test system of data set [15] is Mus musculus. Put plainly: Induction of gastrointestinal motility in CD-1 mouse assessed as increase in fecal water content at 10 to 100 mg/kg, po measured upto 6 hrs. Type of data set: functional, organism-based. The conditions noted are these: dose 10-100 mg/kg.

Chain of Transient receptor potential cation channel subfamily M member 4 (Q8TD43 whole entry): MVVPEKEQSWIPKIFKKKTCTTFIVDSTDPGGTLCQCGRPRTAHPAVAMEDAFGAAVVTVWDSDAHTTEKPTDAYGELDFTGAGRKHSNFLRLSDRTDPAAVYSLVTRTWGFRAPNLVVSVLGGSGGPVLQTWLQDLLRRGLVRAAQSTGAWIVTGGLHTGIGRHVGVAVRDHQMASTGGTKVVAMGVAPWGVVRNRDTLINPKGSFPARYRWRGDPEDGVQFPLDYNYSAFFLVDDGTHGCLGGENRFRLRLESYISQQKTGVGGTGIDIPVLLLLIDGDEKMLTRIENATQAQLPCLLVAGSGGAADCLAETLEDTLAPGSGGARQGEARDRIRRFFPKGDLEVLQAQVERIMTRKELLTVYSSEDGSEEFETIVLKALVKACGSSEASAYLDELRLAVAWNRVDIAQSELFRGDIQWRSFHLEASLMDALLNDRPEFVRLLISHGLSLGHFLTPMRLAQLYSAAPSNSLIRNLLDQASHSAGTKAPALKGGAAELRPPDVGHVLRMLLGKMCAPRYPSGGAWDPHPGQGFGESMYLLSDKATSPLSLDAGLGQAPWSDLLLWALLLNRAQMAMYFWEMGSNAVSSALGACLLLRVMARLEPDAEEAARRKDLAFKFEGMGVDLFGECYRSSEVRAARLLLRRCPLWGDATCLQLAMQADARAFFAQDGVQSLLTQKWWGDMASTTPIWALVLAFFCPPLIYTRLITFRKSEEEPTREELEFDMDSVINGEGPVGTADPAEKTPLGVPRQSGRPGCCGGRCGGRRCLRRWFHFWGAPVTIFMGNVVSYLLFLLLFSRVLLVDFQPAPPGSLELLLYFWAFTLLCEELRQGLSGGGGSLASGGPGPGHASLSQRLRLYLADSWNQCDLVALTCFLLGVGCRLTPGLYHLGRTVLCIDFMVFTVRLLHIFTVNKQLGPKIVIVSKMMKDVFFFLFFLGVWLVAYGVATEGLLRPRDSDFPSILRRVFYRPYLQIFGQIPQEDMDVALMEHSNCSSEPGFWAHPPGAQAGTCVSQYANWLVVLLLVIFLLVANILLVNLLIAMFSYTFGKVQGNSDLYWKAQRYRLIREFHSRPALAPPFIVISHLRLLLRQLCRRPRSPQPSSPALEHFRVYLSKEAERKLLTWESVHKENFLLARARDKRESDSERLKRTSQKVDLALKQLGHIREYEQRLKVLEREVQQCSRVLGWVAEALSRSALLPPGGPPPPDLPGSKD

For the molecule `OC[C@@H]1Cc2ccc(Cl)cc2[C@@H](c2ccccc2)N1` (racemic), the EC50 in data set [1] is over 31600 nM. As for `OC[C@@H]1Cc2ccc(Cl)cc2[C@H](c2cc(F)cc(Cl)c2)N1`, the EC50 in data set [1] is 100 nM; in data set [2], 1.35 µM.

Consider `Cc1ccc2c(c1)C[C@@H](CO)N[C@H]2c1ccccc1`, for which, in [1], the half-maximal effective concentration (EC50) is 10000 nM. On to `OC[C@@H]1Cc2cc(Cl)ccc2[C@H](c2ccccc2)N1`, for which the EC50 in [1] was 501 nM; in data set [2], 26.3 µM. Taken in the same sequence, the figures for `Cc1cc([C@@H]2N[C@H](CO)Cc3ccc(Cl)cc32)ccc1Cl` were 1000 nM and 25.7 µM. On to `C=CCNC(=S)/N=c1/sc2ccccc2n1C`, for which the half-life in data set [3] came to 2.6 min; in [8] it was 4.1 min. In addition, the figures for the EC50 in [4], in [1] and in data set [9] were 10 µM, 631 nM and 9.4 µM, respectively. Besides, the solubility turned out to be 0.9 µM (≈ 0.237 µg/mL) in [5] and 1.7 µM (≈ 0.448 µg/mL) in data set [6]. The CLint scaled worked out at 540 mL/min/kg in data set [7] and 338 mL/min/kg in [10]. As for `N#Cc1ccc2c(c1)[C@H](c1cc(F)cc(Cl)c1)N[C@H](CO)C2`, the EC50 in [1] was 7940 nM. `OC[C@@H]1Cc2ccc(Cl)cc2[C@H](c2cccc(F)c2)N1`: the EC50 in data set [1] was 316 nM; in data set [2], 1.7 µM. With `OC[C@@H]1Cc2cc(Cl)cnc2[C@H](c2cc(F)cc(Cl)c2)N1`, in data set [1], the EC50 was 3160 nM. The same measure, in the same setting: then `OC[C@@H]1Cc2ccc(Cl)cc2[C@H](c2ccncc2)N1`, with over 31600 nM; and `OC[C@@H]1Cc2ccc(Cl)cc2[C@H](c2cccnc2)N1`, with 20000 nM.

For the molecule `OC[C@@H]1Cc2cc(Cl)ccc2[C@H](c2cc(F)cc(Cl)c2)N1`, the EC50 in data set [1] is 63.1 nM. The same measure, in the same setting: then `OC[C@@H]1Cc2cc(Cl)c(F)cc2[C@H](c2ccccc2)N1`, with 316 nM; and `N#Cc1cc(F)cc([C@@H]2N[C@H](CO)Cc3cc(Cl)ccc32)c1`, with 251 nM; and `OC[C@@H]1Cc2cc(Cl)c(Cl)cc2[C@H](c2ccccc2)N1`, with 50.1 nM. As for `Clc1cnc(CNc2cc3sncc3cc2Cl)s1`, the outcome in data set [11] was Active.

Turning to `Cc1ccc([C@@H]2N[C@H](CO)Cc3ccc(Cl)cc32)cc1`, in data set [1], the half-maximal effective concentration (EC50) was 6310 nM. Still for that read-out and setting: then `COC[C@@H]1Cc2ccc(Cl)cc2[C@H](c2ccccc2)N1`, with 15800 nM; and `OCc1cc2ccc(Cl)cc2c(-c2ccccc2)n1`, with over 31600 nM.

With `C=CC(C)(C)c1cc2cc3c(cc2oc1=O)O[C@H](C(C)(C)OC(C)=O)C3`, a half-maximal response in [12] (EC50) required 27 µM. Turning to `OC[C@@H]1Cc2cc(Cl)ncc2[C@H](c2cc(F)cc(Cl)c2)N1`, in data set [1], the EC50 is 2000 nM. In the case of `OC[C@@H]1Cc2ccc(Cl)cc2[C@H](c2ccccc2)N1` (racemic), the EC50 was 794 nM in data set [1] and 24.5 µM in [2].

For the molecule `OC[C@@H]1Cc2ccc(Cl)cc2[C@H](c2ccccn2)N1`, in data set [1], the EC50 was 7940 nM. On the same count and under the same terms, then `OC[C@@H]1Cc2cccc(Cl)c2[C@H](c2ccccc2)N1`, with over 31600 nM.

As for `Cc1ccccc1[C@@H]1N[C@H](CO)Cc2ccc(Cl)cc21`, the EC50 in data set [1] is over 31600 nM. Still for that read-out and setting: then `N#Cc1ccc2c(c1)C[C@@H](CO)N[C@H]2c1cc(F)cc(Cl)c1`, with 20000 nM.

Turning to `Cc1ccc2c(c1)[C@H](c1ccccc1)N[C@H](CO)C2`, the EC50 in data set [1] was 10000 nM. Turning to `OC[C@@H]1Cc2ccc(Cl)cc2[C@H](c2cc(F)cc(F)c2)N1`, the results for the EC50 in data set [1] and in data set [2] were 200 nM and 0.589 µM, respectively. `OC[C@@H]1Cc2ccccc2[C@H](c2ccccc2)N1`: the EC50 in data set [1] is over 31600 nM. Consider `OC[C@@H]1Cc2ccc(Cl)cc2[C@H](c2cc(Cl)cc(Cl)c2)N1`, for which the EC50 in [1] was 200 nM; in [2], 8.91 µM. On to `N#Cc1ccc2c(c1)C[C@H](CO)N[C@@H]2c1cc(F)cc(Cl)c1`, for which the result (in [13]; in the data set on Mus musculus [14]; in [11]; with Mus musculus [15]) was Active. For `OC[C@@H]1Cc2cc(Cl)ccc2[C@H](c2ccccc2Cl)N1`, the EC50 in data set [1] was 1580 nM. With `OC[C@@H]1Cc2ccc(Cl)cc2[C@H](c2cccc(Cl)c2)N1`, the EC50 in data set [1] was 501 nM; in [2], 1.82 µM. Consider `CN1[C@H](CO)Cc2ccc(Cl)cc2[C@@H]1c1ccccc1`, for which, in data set [1], the EC50 is over 31600 nM. Still for that read-out and setting: in the case of `OC[C@H]1Cc2ccc(Cl)cc2[C@H](c2ccccc2)N1` it was over 31600 nM; in that of `OC[C@@H]1Cc2c(Cl)cccc2[C@H](c2ccccc2)N1`, 1260 nM.

For the origin of these results see ChEMBL document CHEMBL5150049, “The discovery of (1R, 3R)-1-(3-chloro-5-fluorophenyl)-3-(hydroxymethyl)-1,2,3,4-tetrahydroisoquinoline-6-carbonitrile, a potent and selective agonist of human transient receptor potential cation channel subfamily m member 5 (TRPM5) and evaluation of as a potential gastrointestinal prokinetic agent” (Bioorg Med Chem, 2022).
